Experimental data as given in patent US12459899B2, “Isoquinolinone derivatives, method for preparing the same, and pharmaceutical composition for preventing or treating poly(ADP-ribose) polymerase-1-related diseases, comprising the same as active ingredient” (DIGMBIO. INC., priority 2019, dated 2025).

The molecules below were run against PARP-1 (poly[ADP-ribose] polymerase 1) enzyme (Homo sapiens (Human), UniProt P09874) (assay: PARP-1 (poly[ADP-ribose] polymerase 1) enzyme inhibitory ability, Trevigen assay kit). Settings: 1 nM compound; read-out: PAR P-1 Inhibitory ability at 1 nM.
PARP-1 (poly[ADP-ribose] polymerase 1) enzyme, sequence (P09874 whole entry): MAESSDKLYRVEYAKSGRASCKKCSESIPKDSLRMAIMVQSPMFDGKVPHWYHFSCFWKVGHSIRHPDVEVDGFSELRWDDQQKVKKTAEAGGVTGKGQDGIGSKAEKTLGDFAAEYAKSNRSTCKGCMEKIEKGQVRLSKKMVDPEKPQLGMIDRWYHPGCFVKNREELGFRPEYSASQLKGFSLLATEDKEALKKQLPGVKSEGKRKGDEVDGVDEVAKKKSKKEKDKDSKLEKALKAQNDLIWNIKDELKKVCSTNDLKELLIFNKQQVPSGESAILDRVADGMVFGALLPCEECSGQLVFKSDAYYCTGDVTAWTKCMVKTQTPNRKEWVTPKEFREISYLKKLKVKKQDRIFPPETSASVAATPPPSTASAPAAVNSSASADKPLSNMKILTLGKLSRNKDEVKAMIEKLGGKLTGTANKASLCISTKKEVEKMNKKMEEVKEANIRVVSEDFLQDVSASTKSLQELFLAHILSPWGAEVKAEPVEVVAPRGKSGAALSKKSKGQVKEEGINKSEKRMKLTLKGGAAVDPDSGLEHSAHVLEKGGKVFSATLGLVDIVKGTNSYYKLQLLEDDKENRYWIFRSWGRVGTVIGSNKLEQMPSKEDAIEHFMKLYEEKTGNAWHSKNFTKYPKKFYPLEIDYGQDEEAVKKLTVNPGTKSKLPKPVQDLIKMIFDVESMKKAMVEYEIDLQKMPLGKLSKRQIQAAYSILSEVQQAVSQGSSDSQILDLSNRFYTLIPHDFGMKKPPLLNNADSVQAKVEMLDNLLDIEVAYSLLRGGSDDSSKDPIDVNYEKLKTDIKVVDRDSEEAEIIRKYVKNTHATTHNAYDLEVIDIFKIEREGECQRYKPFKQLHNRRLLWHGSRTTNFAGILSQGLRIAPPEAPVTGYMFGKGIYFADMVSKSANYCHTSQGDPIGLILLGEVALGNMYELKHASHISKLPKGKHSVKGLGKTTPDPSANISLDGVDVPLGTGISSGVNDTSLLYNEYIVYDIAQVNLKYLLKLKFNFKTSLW
Format: biochemical
Description: In order to evaluate the PARP-1 (poly[ADP-ribose] polymerase 1) enzyme inhibitory ability of the compounds according to the present invention, an experiment was conducted as follows.
Specifically, in order to evaluate the PARP-1 (poly[ADP-ribose] polymerase 1) enzyme inhibitory ability of the compounds of Examples 1 to 276 according to the present invention, the PARP-1 (poly[ADP-ribose] polymerase 1) activity was investigated in the following manner using an assay kit purchased from Trevigen, Inc. (Catalog number: 4677-096-K). 50 μL of 1×PARP buffer (provided by Trevigen's kit) was dispensed into a 96-well plate coated with histones per each well, and then rehydrated for 30 minutes. After removing the 1×PARP buffer present in the well, PARP-1 (poly[ADP-ribose] polymerase 1) enzyme (0.5 unit/well) and 1 μM concentration or various concentrations of the compounds of Example 1 to 276 were added at room temperature and reacted for 10 minutes. Thereafter, each well was treated with 25 μL of 1×PARP cocktail (biotinylated NAD, activated DNA, provided by Trevigen's kit), and then reacted at room temperature for 1 hour. After the reaction was completed, each well was washed twice with PBS (7.5 mM Na2HPO4, 2.5 mM NaH2PO4, 145 mM NaCl) containing 0.1% triton X-100, and washed twice with PBS. Then, 50 μL of strep-HRP (streptavidin-linked peroxidase) was added and reacted at room temperature for 1 hour, and then washed twice with PBS containing 0.1% triton X-100, and washed twice with PBS. After removing all PBS, 50 μL of TACS-sapphire, a substrate, was added, and reacted at room temperature for 15 minutes while blocking the light. After the reaction was terminated by treatment with 50 μL of 5% phosphoric acid to each well, the absorbance was measured at 450 nm using a microplate reader Victor3 from PerkinElmer, Inc. to quantify the value.

Compound | inhibition at 0.001 µM [%]
O=C(CCc1cc2cccc(F)c2c(=O)[nH]1)N1CCN(c2ccccc2F)CC1 [Example 75, 8-fluoro-3-(3-(4-(2-fluorophenyl)piperazin-1-yl)-3-oxopropyl)isoquinolin-1(2H)-one] | < 50
O=c1[nH]c(CCCN2CCN(c3cccc(OC(F)(F)F)c3)CC2)cc2ccc(F)cc12 [Example 16, 7-fluoro-3-(3-(4-(3-(trifluoromethoxy)phenyl)piperazin-1-yl)propyl)isoquinolin-1(2H)-one] | < 50
N#Cc1ccc(N2CCN(CCCc3cc4ncccc4c(=O)[nH]3)CC2)cn1 [Example 226, 5-(4-(3-(5-oxo-5,6-dihydro-1,6-naphthyridin-7-yl)propyl)piperazin-1-yl)picolinonitrile] | < 50
Cc1ccc(F)c2c(=O)[nH]c(CCCN3C4CCC3CN(c3ccc(C#N)cc3)C4)cc12 [Example 197] | < 50
Cc1ccc(F)c2c(=O)[nH]c(CCCN3CC[C@H](c4ccc(F)cc4)C3)cc12 [Example 31, (R)-8-fluoro-3-(3-(3-(4-fluorophenyl)pyrrolidin-1-yl)propyl)-5-methylisoquinolin-1(2H)-one] | < 50
N#Cc1ccc(N2CCN(C(=O)CCc3cc4cccc(F)c4c(=O)[nH]3)CC2)cc1F [Example 72, 2-fluoro-4-(4-(3-(8-fluoro-1-oxo-1,2-dihydroisoquinolin-3-yl)propanoyl)piperazin-1-yl)benzonitrile] | < 50
CC(C)C(=O)N1CCN(C(=O)CCc2cc3ccc(F)cc3c(=O)[nH]2)CC1 [Example 188, 7-fluoro-3-(3-(4-isobutyrylpiperazin-1-yl)-3-oxopropyl)isoquinolin-1(2H)-one] | < 50
Cc1ccc(F)c2c(=O)[nH]c(CCC(=O)N3CCC(NC(=O)C4CC4)CC3)cc12 [Example 276, N-(1-(3-(8-fluoro-5-methyl-1-oxo-1,2-dihydroisoquinolin-3-yl)propanoyl)piperidin-4-yl)cyclopropanecarboxamide] | < 50
O=C(CCc1cc2cccc(F)c2c(=O)[nH]1)N1CCN(c2cccc(F)c2)CC1 [Example 89, 8-fluoro-3-(3-(4-(3-fluorophenyl)piperazin-1-yl)-3-oxopropyl)isoquinolin-1(2H)-one] | < 50
Cc1ccc(F)c2c(=O)[nH]c(CCC(=O)N3CCN(c4ccc(F)cc4C#N)CC3)cc12 [Example 136, 5-fluoro-2-(4-(3-(8-fluoro-5-methyl-1-oxo-1,2-dihydroisoquinolin-3-yl)propanoyl)piperazin-1-yl)benzonitrile] | < 50
Cc1ccc(F)c2c(=O)[nH]c(CCC(=O)N3CC=C(c4ccnc(F)c4)CC3)cc12 [Example 144, 8-fluoro-3-(3-(2′-fluoro-3,6-dihydro-[4,4′-bipyridine]-1(2H)-yl)-3-oxopropyl)-5-methylisoquinolin-1(2H)-one] | < 50
Cc1cc(F)cc2c(=O)[nH]c(CCCN3CC=C(c4ccc(F)cc4)CC3)cc12 [Example 59, 7-fluoro-3-(3-(4-(4-fluorophenyl)-3,6-dihydropyridin-1(2H)-yl)propyl)-5-methylisoquinolin-1(2H)-one] | < 50
Cc1cc(F)cc2c(=O)[nH]c(CCC(=O)N3CCN(c4ccc(F)c(C#N)c4)CC3)cc12 [Example 158, 2-fluoro-5-(4-(3-(7-fluoro-5-methyl-1-oxo-1,2-dihydroisoquinolin-3-yl)propanoyl)piperazin-1-yl)benzonitrile] | < 50
O=c1[nH]c(CCCN2C3CCC2CC(O)C3)cc2cccc(F)c12 (stereo not shown) [Example 272, 8-fluoro-3-(3-(3-hydroxy-8-azabicyclo[3.2.1]octan-8-yl)propyl)isoquinolin-1(2H)-one] | 50 to 80
Cc1cc(F)cc2c(=O)[nH]c(CCC(=O)N3CCN(c4ccc(C#N)cc4)CC3)cc12 [Example 149, 4-(4-(3-(7-fluoro-5-methyl-1-oxo-1,2-dihydroisoquinolin-3-yl)propanoyl)piperazin-1-yl)benzonitrile] | < 50
O=C(CCc1cc2ccc(F)cc2c(=O)[nH]1)N1CC=C(c2ccc(F)cn2)CC1 [Example 103, 7-fluoro-3-(3-(5-fluoro-3′,6′-dihydro-[2,4′-bipyridine]-1′(2′H)-yl)-3-oxopropyl)isoquinolin-1(2H)-one] | < 50
Cc1ccc(F)c2c(=O)[nH]c(CCCN3CCN(c4ncccn4)CC3)cc12 [Example 25, 8-fluoro-5-methyl-3-(3-(4-(pyrimidin-2-yl)piperazin-1-yl)propyl)isoquinolin-1(2H)-one] | < 50
N#Cc1ccc(C2=CCN(C(=O)CCc3cc4cccc(F)c4c(=O)[nH]3)CC2)cc1 [Example 69, 4-(1-(3-(8-fluoro-1-oxo-1,2-dihydroisoquinolin-3-yl)propanoyl)-1,2,3,6-tetrahydropyridin-4-yl)benzonitrile] | < 50
Cc1ccc(F)c2c(=O)[nH]c(CCC(=O)N3CCN(c4cccc(F)c4)CC3)cc12 [Example 142, 8-fluoro-3-(3-(4-(3-fluorophenyl)piperazin-1-yl)-3-oxopropyl)-5-methylisoquinolin-1(2H)-one] | < 50
O=C(CCc1cc2cccc(F)c2c(=O)[nH]1)N1CC=C(c2ccc(F)cn2)CC1 [Example 86] | < 50
N#Cc1ccc(OC2CC3CCC(C2)N3CCCc2cc3cccc(F)c3c(=O)[nH]2)cc1 (stereo not shown) [Example 273, 4-((8-(3-(8-fluoro-1-oxo-1,2-dihydroisoquinolin-3-yl)propyl)-8-azabicyclo[3.2.1]octan-3-yl)oxy)benzonitrile] | < 50
N#Cc1ccc(N2CC3CCC(C2)N3CCCc2cc3cccc(F)c3c(=O)[nH]2)cc1 [Example 7, 4-(8-(3-(8-fluoro-1-oxo-1,2-dihydroisoquinolin-3-yl)propyl)-3,8-diazabicyclo[3.2.1]octan-3-yl)benzonitrile] | < 50
COC(=O)c1ccc(N2CCN(C(=O)CCc3cc4c(C)ccc(F)c4c(=O)[nH]3)CC2)cc1 [Example 146, methyl 4-(4-(3-(8-fluoro-5-methyl-1-oxo-1,2-dihydroisoquinolin-3-yl)propanoyl)piperazin-1-yl)benzoate] | < 50
N#Cc1ccc(C2=CCN(C(=O)CCc3cc4cccc(F)c4c(=O)[nH]3)CC2)cn1 [Example 93, 1′-(3-(8-fluoro-1-oxo-1,2-dihydroisoquinolin-3-yl)propanoyl)-1′,2′,3′,6′-tetrahydro-[3,4′-bipyridine]-6-carbonitrile] | < 50
N#Cc1ccc(N2CCN(C(=O)CCc3cc4ncccc4c(=O)[nH]3)CC2)cc1 [Example 241, 4-(4-(3-(5-oxo-5,6-dihydro-1,6-naphthyridin-7-yl)propanoyl)piperazin-1-yl)benzonitrile] | 50 to 80
Cc1ccc(F)c2c(=O)[nH]c(CCCN3C4CCC3CN(c3ccc(C#N)nc3)C4)cc12 [Example 200, 5-(8-(3-(8-fluoro-5-methyl-1-oxo-1,2-dihydroisoquinolin-3-yl)propyl)-3,8-diazabicyclo[3.2.1]octan-3-yl)picolinonitrile] | 50 to 80
O=C(CCc1cc2ccc(F)cc2c(=O)[nH]1)N1CCN(C(=O)C2CCCCC2)CC1 [Example 172, 3-(3-(4-(cyclohexanecarbonyl)piperazin-1-yl)-3-oxopropyl)-7-fluoroisoquinolin-1(2H)-one] | < 50

Same assay, conditions: PARP-1 enzyme activity

Compound | IC50 [nM]
O=c1[nH]c(CCCN2C3CCC2CC(O)C3)cc2cccc(F)c12 (stereo not shown) [Example 272, 8-fluoro-3-(3-(3-hydroxy-8-azabicyclo[3.2.1]octan-8-yl)propyl)isoquinolin-1(2H)-one] | 3.27
O=C(CCc1cc2ccc(F)cc2c(=O)[nH]1)N1CC=C(c2ccc(F)cn2)CC1 [Example 103, 7-fluoro-3-(3-(5-fluoro-3′,6′-dihydro-[2,4′-bipyridine]-1′(2′H)-yl)-3-oxopropyl)isoquinolin-1(2H)-one] | 0.91
N#Cc1ccc(N2CCN(C(=O)CCc3cc4ncccc4c(=O)[nH]3)CC2)cc1 [Example 241, 4-(4-(3-(5-oxo-5,6-dihydro-1,6-naphthyridin-7-yl)propanoyl)piperazin-1-yl)benzonitrile] | 4.92
Cc1ccc(F)c2c(=O)[nH]c(CCCN3C4CCC3CN(c3ccc(C#N)nc3)C4)cc12 [Example 200, 5-(8-(3-(8-fluoro-5-methyl-1-oxo-1,2-dihydroisoquinolin-3-yl)propyl)-3,8-diazabicyclo[3.2.1]octan-3-yl)picolinonitrile] | 1.24
